In PubChem BioAssay AID2060627 (Molecular Pharmacology Branch, DTP, NCI, 2025):
pIC50: −log10 of the molar value. Values joined by “and” are separate entries in the source; they are usually repeats but may differ in a detail not shown here. Equal values may be shown once.

Test system: 156681-154-R-J1-PDC complex spheroid viability
Test: Anticancer human tumor 156681-154-R-J1-PDC patient-derived melanoma cell line growth inhibition [CLK]
Conditions: for viability, T/C: stronger effect = lower value
Procedure, shortened: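 Multi-cell-type spheroids combined patient-derived tumor cells with HUVEC endothelial cells and human mesenchymal stem cells. Paired agents were dosed in half-log steps down from about clinical Cmax, or from 10 microM where Cmax was unknown.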

[1] = curve of first compound, second compound 0.0316 µM
[2] = curve of first compound, second compound 0.1 µM
[3] = curve of first compound, second compound 0.316 µM
[4] = curve of first compound, second compound 1 µM
[5] = curve of first compound, second compound 3.16 µM
[6] = curve of first compound, second compound 10 µM
[7] = second compound 0.0316 µM, first compound 0.0316 µM
[8] = second compound 0.0316 µM, first compound 0.1 µM
[9] = second compound 0.0316 µM, first compound 0.316 µM
[10] = second compound 0.0316 µM, first compound 1 µM
[11] = second compound 0.0316 µM, first compound 3.16 µM
[12] = second compound 0.0316 µM, first compound 10 µM
[13] = second compound 0.1 µM, first compound 0.0316 µM
[14] = second compound 0.1 µM, first compound 0.1 µM
[15] = second compound 0.1 µM, first compound 0.316 µM
[16] = second compound 0.1 µM, first compound 1 µM
[17] = second compound 0.1 µM, first compound 3.16 µM
[18] = second compound 0.1 µM, first compound 10 µM
[19] = second compound 0.316 µM, first compound 0.0316 µM
[20] = second compound 0.316 µM, first compound 0.1 µM
[21] = second compound 0.316 µM, first compound 0.316 µM
[22] = second compound 0.316 µM, first compound 1 µM
[23] = second compound 0.316 µM, first compound 3.16 µM
[24] = second compound 0.316 µM, first compound 10 µM
[25] = second compound 1 µM, first compound 0.0316 µM
[26] = second compound 1 µM, first compound 0.1 µM
[27] = second compound 1 µM, first compound 0.316 µM
[28] = second compound 1 µM, first compound 1 µM
[29] = second compound 1 µM, first compound 3.16 µM
[30] = second compound 1 µM, first compound 10 µM
[31] = second compound 3.16 µM, first compound 0.0316 µM
[32] = second compound 3.16 µM, first compound 0.1 µM
[33] = second compound 3.16 µM, first compound 0.316 µM
[34] = second compound 3.16 µM, first compound 1 µM
[35] = second compound 3.16 µM, first compound 3.16 µM
[36] = second compound 3.16 µM, first compound 10 µM
[37] = second compound 10 µM, first compound 0.0316 µM
[38] = second compound 10 µM, first compound 0.1 µM
[39] = second compound 10 µM, first compound 0.316 µM
[40] = second compound 10 µM, first compound 1 µM
[41] = second compound 10 µM, first compound 3.16 µM
[42] = second compound 10 µM, first compound 10 µM
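Also: spheroids exposed to the agents for seven days.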
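For viability, T/C in this document: 100% = DMSO vehicle control viability.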

With `CC1(C)CCC(CN2CCN(c3ccc(C(=O)NS(=O)(=O)c4ccc(NCC5CCOCC5)c([N+](=O)[O-])c4)c(Oc4cnc5[nH]ccc5c4)c3)CC2)=C(c2ccc(Cl)cc2)C1` the viability, T/C (compound 0.0316 µM) was 112% and 88.5%, the viability, T/C (compound 0.1 µM) was 81.5% and 88.9% and the viability, T/C (compound 0.316 µM) was 88.7% and 90.4%. For the same compound, the viability, T/C (compound 1 µM) was 101% and 94.3%, the viability, T/C (compound 3.16 µM) was 68.2% and 77.1% and the viability, T/C (compound 10 µM) was 4.6% and 1.6%. For the same compound, the pIC50 (curve of compound) was 5.36 and 5.32.

In the case of `COc1ccc([C@@H](O)c2cc(-c3ncnc4cc(N5CCOCC5)ccc34)c(F)cc2Cl)nn1` + CNC(=O)c1ccc(Nc2nc(OC3CCCC3)c3c(-c4ccc5nc(C)oc5c4)c[nH]c3n2)c(OC)c1, the pIC50 [1] was 5.72, the pIC50 [2] was 5.83 and the pIC50 [3] was 5.96. For the same compound, the pIC50 [4] was 6.94, the pIC50 [5] was > 7.50 and the pIC50 [6] was > 7.50. The viability, T/C [7] was 80.7%, the viability, T/C [8] was 97.2% and the viability, T/C [9] was 87.8%. The viability, T/C [10] was 69.8%, the viability, T/C [11] was 34.6% and the viability, T/C [12] was 29%. The viability, T/C [13] was 44.7%, the viability, T/C [14] was 64.6% and the viability, T/C [15] was 52.2%. For the same compound, the viability, T/C [16] was 56.8%, the viability, T/C [17] was 41.2% and the viability, T/C [18] was 21.3%. For the same compound, the viability, T/C [19] was 59.5%, the viability, T/C [20] was 62% and the viability, T/C [21] was 50.9%. It also gave a viability, T/C [22] of 52.9%, a viability, T/C [23] of 28.4% and a viability, T/C [24] of 20.7%. It also gave a viability, T/C [25] of 50.8%, a viability, T/C [26] of 55.6% and a viability, T/C [27] of 47.7%. It also gave a viability, T/C [28] of 29.2%, a viability, T/C [29] of 32.8% and a viability, T/C [30] of 9.5%. It also gave a viability, T/C [31] of 46.8%, a viability, T/C [32] of 47.6% and a viability, T/C [33] of 37.1%. It also gave a viability, T/C [34] of 33.7%, a viability, T/C [35] of 29.7% and a viability, T/C [36] of 5.99%. For the same compound, the viability, T/C [37] was 39.3%, the viability, T/C [38] was 30% and the viability, T/C [39] was 29.9%. It also gave a viability, T/C [40] of 28%, a viability, T/C [41] of 18.9% and a viability, T/C [42] of 2.83%.

For `C#Cc1c(F)ccc2cc(O)cc(-c3ncc4c(N5CC6CCC(C5)N6)nc(OCC56CCCN5CC(F)C6)nc4c3F)c12` (stereo not drawn) + CN1CCN(c2cc(C(=O)Nc3cc4cc(-c5cnn(C)c5)ccc4cn3)ccn2)CC1, the pIC50 [1] was < 5.00, the pIC50 [2] was < 5.00 and the pIC50 [3] was > 7.50. For the same compound, the pIC50 [4] was > 7.50, the pIC50 [5] was > 7.50 and the pIC50 [6] was > 7.50. The viability, T/C [7] was 100%, the viability, T/C [8] was 81.5% and the viability, T/C [9] was 97%. The viability, T/C [10] was 120%, the viability, T/C [11] was 98.2% and the viability, T/C [12] was 119%. For the same compound, the viability, T/C [13] was 84.4%, the viability, T/C [14] was 86.7% and the viability, T/C [15] was 92.6%. For the same compound, the viability, T/C [16] was 100%, the viability, T/C [17] was 95.8% and the viability, T/C [18] was 97%. The viability, T/C [19] was 29%, the viability, T/C [20] was 22.5% and the viability, T/C [21] was 25.9%. The viability, T/C [22] was 26.7%, the viability, T/C [23] was 31.9% and the viability, T/C [24] was 20.6%. For the same compound, the viability, T/C [25] was 0.31%, the viability, T/C [26] was 2.37% and the viability, T/C [27] was 0.28%. It also gave a viability, T/C [28] of 0.23%, a viability, T/C [29] of 0.15% and a viability, T/C [30] of 1.07%. The viability, T/C [31] was 0.15%, the viability, T/C [32] was 0.39% and the viability, T/C [33] was 0.11%. The viability, T/C [34] was 0.49%, the viability, T/C [35] was 0.15% and the viability, T/C [36] was 0.12%. The viability, T/C [37] was 0.19%, the viability, T/C [38] was 2.4% and the viability, T/C [39] was 0.37%. It also gave a viability, T/C [40] of 0.17%, a viability, T/C [41] of 0.18% and a viability, T/C [42] of 0.17%.

`NC(=O)C(=Cn1cnc(-c2cc(C(F)(F)F)cc(C(F)(F)F)c2)n1)c1cncnc1` was tested, and the viability, T/C (compound 0.00949 µM) was 79.6% and 73.7%, the viability, T/C (compound 0.03 µM) was 67.2% and 49.7% and the viability, T/C (compound 0.0949 µM) was 46.6% and 36.5%. For the same compound, the viability, T/C (compound 0.3 µM) was 14.8% and 11.8%, the viability, T/C (compound 0.949 µM) was 6.97% and 7.35% and the viability, T/C (compound 3 µM) was 4.72% and 4.92%. For the same compound, the pIC50 (curve of compound) was 7.13 and 7.46.
